For data set [1] the following is noted: TGA; mixture of water, dicamba-DGA and water conditioning agent at field-use concentrations. The text has this: A comparison of the increase in auxin herbicide volatility in various water conditioning agents was done by preparing mixtures of water, herbicide (dicamba diglycolamine (DGA) salt in this case), and water conditioning agent. Concentration of the solutions mimics actual agricultural field-use concentrations. In this test, done using thermogravimetric analysis (TGA), a comparison was made between a control (dicamba-DGA alone) to dicamba-DGA plus a water conditioning agent.

Data set [2] in a line: Compatibility with glyphosate herbicide solution. It counts as physicochemical. To be noted: 950 g water with 1000 ppm calcium, 30 g MEA sulfate solution, 20 g ROUNDUP ULTRA MAX. The protocol:
A mixture of 950 grams water containing 1000 ppm calcium, 30 grams of the MEA sulfate solution from Example 1, and 20 grams of ROUNDUP ULTRA® MAX herbicide (The Scotts Company LLC of Marysville, Ohio) was prepared.

For another data set, the system named is amaranth. As to the kind of experiment: Field trial, water conditioning effect with glyphosate, visual injury. As to conditions: for % Control 2 Weeks Post Treatment, Mean / % Control 4 Weeks Post Treatment, Mean: mean of 3 plots; for % Control 2 Weeks Post Treatment / % Control 4 Weeks Post Treatment: single plots. In kind it is in vivo. The protocol: (§1) A field trial was conducted to compare the efficacy of the herbicide glyphosate (diluted to less than its label use rate with distilled water or water containing 1000 ppm (calcium+magnesium)), with or without water conditioning agents of the present disclosure. In this trial, the glyphosate-containing spray was applied to flax, amaranth, sunflower and corn. The glyphosate used in this field trial was Touchdown® HT herbicide and its spray application rate was kept constant at 9.6 fl oz/a. A non-ionic surfactant (Activator 90 surfactant) was also applied with the herbicide at a constant spray application rate of 0.5% v/v. Finally, the water conditioning agents of the present disclosure, when present, were applied at spray application rates of 0.75% v/v and 1.0% v/v. Flax, amaranth, sunflower and corn, which had been plotted at various locations throughout the field, were spray treated and visually assessed on a particular day after treatment for injury on a scale of 0 to 100%, with zero representing “no” injury and 100% representing “complete” injury or death. The water conditioning agents tested during this trial included: […]

In the next data set the test system is corn. The data set is described as above. It counts as in vivo. As to conditions: for % Control 2 Weeks Post Treatment, Mean / % Control 4 Weeks Post Treatment, Mean: mean of 3 plots; for % Control 2 Weeks Post Treatment / % Control 4 Weeks Post Treatment: single plots. The protocol:
as §1

For another data set, the system named is flax. The description is as above. It counts as in vivo. To be noted: for % Control 2 Weeks Post Treatment, Mean / % Control 4 Weeks Post Treatment, Mean: mean of 3 plots; for % Control 2 Weeks Post Treatment / % Control 4 Weeks Post Treatment: single plots. The protocol: as §1
The test system of the next data set is sunflower. The description is as above. As to conditions: for % Control 2 Weeks Post Treatment, Mean / % Control 4 Weeks Post Treatment, Mean: mean of 3 plots; for % Control 2 Weeks Post Treatment / % Control 4 Weeks Post Treatment: single plots. It counts as in vivo. The protocol:
as §1

Setting [3] is: glyphosate in hard water + non-ionic surfactant + sulfate at 0.75% v/v.
Where [4] appears, read: glyphosate in hard water + non-ionic surfactant + sulfate at 1.0% v/v.
The mark [5] stands for this setting: glyphosate in distilled water + non-ionic surfactant.
The mark [6] stands for this setting: glyphosate in hard water + non-ionic surfactant, no water conditioner.

Where “and” joins values, the source holds several entries; their conditions need not be identical. Equal entries are not always repeated.

The source of these data is patent US11096389B2, “Alkanolamine sulfate water conditioners” (Indorama Ventures Oxides LLC, priority 2014, dated 2021).

As for `COc1c(Cl)ccc(Cl)c1C(=O)O` [Dicamba-DGA, 3,6-dichloro-2-methoxybenzoic acid], the “Relative Volatility” value in data set [1] is on record as 0.01185.
In the case of monoethanolamine sulfate [Sulfate 1], in data set [2], the “physical and chemical compatibility with glyphosate-containing formulation” value is given as “clear, homogenous solution”. Moreover, the “% Control 2 Weeks Post Treatment, Mean” value with amaranth (setting [3]) came out at 72.7%; in the data set on amaranth (setting [4]), 81.7%; with corn (setting [3]), 68.7%; with corn (setting [4]), 77.7%; with flax (setting [3]) it was 51.7%; with flax (setting [4]), 48.3%. Also, the “% Control 2 Weeks Post Treatment, Mean” value with sunflower (setting [3]) is given as 71%; with sunflower (setting [4]), 85%. For the same compound, the “% Control 4 Weeks Post Treatment, Mean” value is listed as 72.7% with amaranth (setting [3]); 71.7% with amaranth (setting [4]); 79.3% in the data set with corn (setting [3]); 86% in the data set on corn (setting [4]); 51.7% in the data set with flax (setting [3]); 48.3% with flax (setting [4]). Further, the “% Control 4 Weeks Post Treatment, Mean” value came out at 71% with sunflower (setting [3]) and 80% in the data set on sunflower (setting [4]). Besides, the “% Control 2 Weeks Post Treatment” value with amaranth (setting [3]) is 75% and 68%; with amaranth (setting [4]), 80% and 85%; in the data set with corn (setting [3]), 68% and 70%; in the data set on corn (setting [4]), 80% and 75% and 78%; with flax (setting [3]) it was 45% and 50% and 60%; in the data set on flax (setting [4]) it was 55% and 45%. Further, the “% Control 2 Weeks Post Treatment” value in the data set on sunflower (setting [3]) was 70% and 75% and 68%; in the data set with sunflower (setting [4]) it was 85%. Moreover, the “% Control 4 Weeks Post Treatment” value in the data set with amaranth (setting [3]) is 75% and 68%; in the data set with amaranth (setting [4]) it was 70% and 75%; in the data set with corn (setting [3]), 80% and 78%; in the data set on corn (setting [4]) it was 88% and 85%; in the data set with flax (setting [3]), 45% and 50% and 60%; in the data set with flax (setting [4]), 55% and 45%. In addition, the “% Control 4 Weeks Post Treatment” value in the data set on sunflower (setting [3]) is 70% and 75% and 68%; in the data set with sunflower (setting [4]), 80%.
For `O=C(O)CNCP(=O)(O)O` [Glyphosate, N-(phosphonomethyl) glycine, reference compound], the “% Control 2 Weeks Post Treatment, Mean” value with amaranth (setting [5]) came out at 53.3%; in the data set on amaranth (setting [6]) it was 33.3%; in the data set with corn (setting [5]) it was 53.3%; in the data set on corn (setting [6]), 33.3%; in the data set on flax (setting [5]), 53.3%; with flax (setting [6]) it was 33.3%. The “% Control 2 Weeks Post Treatment, Mean” value is reported as 53.3% with sunflower (setting [5]) and 33.3% with sunflower (setting [6]). Also, the “% Control 4 Weeks Post Treatment, Mean” value in the data set with amaranth (setting [5]) is recorded as 56.7%; with amaranth (setting [6]), 33.3%; in the data set with corn (setting [5]), 56.7%; in the data set on corn (setting [6]), 33.3%; in the data set on flax (setting [5]) it was 56.7%; with flax (setting [6]), 33.3%. In addition, the “% Control 4 Weeks Post Treatment, Mean” value in the data set on sunflower (setting [5]) is reported as 56.7%; in the data set with sunflower (setting [6]), 33.3%. Besides, the “% Control 2 Weeks Post Treatment” value in the data set on amaranth (setting [5]) is 50% and 60%; in the data set on amaranth (setting [6]) it was 30% and 35%; in the data set on corn (setting [5]), 50% and 60%; in the data set on corn (setting [6]) it was 30% and 35%; in the data set on flax (setting [5]), 50% and 60%; in the data set on flax (setting [6]) it was 30% and 35%. Further, the “% Control 2 Weeks Post Treatment” value with sunflower (setting [5]) is 50% and 60%; in the data set with sunflower (setting [6]) it was 30% and 35%. Also, the “% Control 4 Weeks Post Treatment” value in the data set with amaranth (setting [5]) is 55% and 60%; in the data set on amaranth (setting [6]) it was 30% and 35%; in the data set on corn (setting [5]), 55% and 60%; in the data set with corn (setting [6]), 30% and 35%; in the data set on flax (setting [5]), 55% and 60%; with flax (setting [6]) it was 30% and 35%. Further, the “% Control 4 Weeks Post Treatment” value in the data set on sunflower (setting [5]) was 55% and 60%; with sunflower (setting [6]) it was 30% and 35%.
